Source: PubChem BioAssay (NCI)
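Dose response: 5 concentrations. Exposure: 48 h. Format: 96-well plates. Endpoint: linear interpolation; highest concentration if not reached. GI50: concentration for 50% inhibition of growth. TGI is the concentration that stops growth completely.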

What was measured:
Experiment in all cases: inhibition of tumour cell growth, NCI panel, 48 h
MALME-3M melanoma = test system: MALME-3M melanoma
LOX IMVI melanoma = test system: LOX IMVI melanoma
TK-10 renal = test system: TK-10 renal
EKVX NSCLC = test system: EKVX NSCLC
UACC-62 melanoma = test system: UACC-62 melanoma
SF-539 CNS = test system: SF-539 CNS
RPMI-8226 leukemia = test system: RPMI-8226 leukemia
NCI-H23 lung = test system: NCI-H23 lung
HL-60(TB) leukemia = test system: HL-60(TB) leukemia
OVCAR-8 ovarian = test system: OVCAR-8 ovarian

## O=C(N/N=C(/COc1ccccc1Cl)N=Cc1ccncc1)c1ccncc1
MALME-3M melanoma
  TGI: > 100 µM
LOX IMVI melanoma
  TGI: > 100 µM
TK-10 renal
  TGI: > 100 µM
EKVX NSCLC
  TGI: > 100 µM
UACC-62 melanoma
  TGI: > 100 µM
SF-539 CNS
  TGI: > 100 µM
RPMI-8226 leukemia
  TGI: > 100 µM
NCI-H23 lung
  TGI: > 100 µM
HL-60(TB) leukemia
  TGI: > 100 µM
OVCAR-8 ovarian
  TGI: > 100 µM

## Cc1c(O)c(OC2OC(CO)C(O)C(O)C2O)cc2c1C=C[C@@H]1[C@@]2(C)C(=O)C[C@]2(C)[C@@H]([C@@](C)(O)C(=O)CCC(C)(C)O)[C@H](O)C[C@@]12C (stereo not given in full)
MALME-3M melanoma
  TGI: 50 µM
LOX IMVI melanoma
  TGI: 59.2 µM
TK-10 renal
  TGI: 33.4 µM
EKVX NSCLC
  TGI: 91.4 µM
UACC-62 melanoma
  TGI: 33.5 µM
SF-539 CNS
  TGI: 43.9 µM
NCI-H23 lung
  TGI: 37.9 µM
HL-60(TB) leukemia
  TGI: > 100 µM
OVCAR-8 ovarian
  TGI: > 100 µM

## CN(C)CC1CCC/C(=C\c2ccc(OC(=O)/C=C/c3ccc(Cl)c(Cl)c3)cc2)C1=O (stereo not given)
MALME-3M melanoma
  TGI: 25.4 µM
LOX IMVI melanoma
  TGI: 4.01 µM
TK-10 renal
  TGI: 5.96 µM
EKVX NSCLC
  TGI: 23.5 µM
UACC-62 melanoma
  TGI: 33.3 µM
SF-539 CNS
  TGI: 7.19 µM
RPMI-8226 leukemia
  TGI: 0.62 µM
NCI-H23 lung
  TGI: 14.4 µM
HL-60(TB) leukemia
  TGI: 3.45 µM
OVCAR-8 ovarian
  TGI: 28.5 µM

## CC1=CCC[C@H]2[C@](C)(CC3=CC(=O)C(Sc4ccccc4)=CC3=O)[C@@H](C)CC[C@]12C
LOX IMVI melanoma
  GI50: 13.6 µM
  TGI: 26.4 µM
EKVX NSCLC
  TGI: 38.9 µM
UACC-62 melanoma
  TGI: 55.3 µM
SF-539 CNS
  TGI: 34.6 µM
RPMI-8226 leukemia
  GI50: 20.2 µM
  TGI: 46.1 µM
NCI-H23 lung
  GI50: 14.7 µM
  TGI: 28.2 µM
OVCAR-8 ovarian
  TGI: 26.4 µM

## CCOC(=O)c1[nH]c2cccc3c2c1CC[C@H](NC(=O)C(F)(F)F)C3=O
MALME-3M melanoma
  TGI: > 100 µM
LOX IMVI melanoma
  TGI: > 100 µM
TK-10 renal
  TGI: > 100 µM
EKVX NSCLC
  TGI: 0.0531 µM
SF-539 CNS
  TGI: > 100 µM
RPMI-8226 leukemia
  TGI: > 100 µM
NCI-H23 lung
  TGI: > 100 µM
HL-60(TB) leukemia
  TGI: > 100 µM
OVCAR-8 ovarian
  TGI: > 100 µM

## Cn1ccnc1CCc1ccc(Cl)c(Cl)c1
MALME-3M melanoma
  TGI: > 100 µM
LOX IMVI melanoma
  TGI: > 100 µM
TK-10 renal
  TGI: > 100 µM
UACC-62 melanoma
  TGI: > 100 µM
SF-539 CNS
  TGI: > 100 µM
RPMI-8226 leukemia
  TGI: > 100 µM
NCI-H23 lung
  TGI: > 100 µM
HL-60(TB) leukemia
  TGI: > 100 µM
OVCAR-8 ovarian
  TGI: > 100 µM

## O=C(O)CNC(=O)c1ccc2cc(C(=O)N3CC(CCl)c4ccc([N+](=O)[O-])cc43)[nH]c2c1 (stereo not given)
LOX IMVI melanoma
  TGI: > 100 µM
TK-10 renal
  TGI: > 100 µM
EKVX NSCLC
  TGI: > 100 µM
UACC-62 melanoma
  TGI: > 100 µM
SF-539 CNS
  TGI: > 100 µM
RPMI-8226 leukemia
  TGI: > 100 µM
NCI-H23 lung
  TGI: > 100 µM
HL-60(TB) leukemia
  TGI: > 100 µM
OVCAR-8 ovarian
  TGI: > 100 µM

## COC([C@@H](OC(=O)c1ccccc1)[C@H](OC(=O)c1ccccc1)C(O)COC(=O)c1ccccc1)n1cc(C)c(=O)[nH]c1=O (stereo not given in full)
MALME-3M melanoma
  TGI: 91.7 µM
LOX IMVI melanoma
  TGI: > 100 µM
TK-10 renal
  TGI: > 100 µM
EKVX NSCLC
  TGI: > 100 µM
UACC-62 melanoma
  TGI: 56.3 µM
RPMI-8226 leukemia
  TGI: > 100 µM
NCI-H23 lung
  TGI: > 100 µM
OVCAR-8 ovarian
  TGI: > 100 µM

## CCCCCCCCCCCCCCCCCC(=O)Nc1ccn(C2CCC(COP(=O)(O)O)O2)c(=O)n1 (stereo not given)
LOX IMVI melanoma
  TGI: > 100 µM
TK-10 renal
  TGI: > 100 µM
EKVX NSCLC
  TGI: > 100 µM
UACC-62 melanoma
  TGI: > 100 µM
SF-539 CNS
  TGI: > 100 µM
RPMI-8226 leukemia
  TGI: > 100 µM
NCI-H23 lung
  TGI: > 100 µM
OVCAR-8 ovarian
  TGI: > 100 µM

## O=[N+]([O-])c1ccc([N+]2=NC(c3ccccc3)=NN(c3ccccc3)C2)cc1
MALME-3M melanoma
  TGI: > 100 µM
LOX IMVI melanoma
  TGI: > 100 µM
TK-10 renal
  TGI: > 100 µM
UACC-62 melanoma
  TGI: > 100 µM
SF-539 CNS
  TGI: > 100 µM
RPMI-8226 leukemia
  TGI: > 100 µM
NCI-H23 lung
  TGI: > 100 µM
HL-60(TB) leukemia
  TGI: > 100 µM
OVCAR-8 ovarian
  TGI: > 100 µM

## Cc1ccc(S(=O)(=O)N/N=C2/CCC(C(C)(C)C)CC2Br)cc1 (stereo not given)
MALME-3M melanoma
  TGI: 31.2 µM
LOX IMVI melanoma
  TGI: 30.5 µM
TK-10 renal
  TGI: > 100 µM
EKVX NSCLC
  TGI: > 100 µM
SF-539 CNS
  TGI: 50.4 µM
RPMI-8226 leukemia
  TGI: 82.3 µM
NCI-H23 lung
  TGI: > 100 µM
HL-60(TB) leukemia
  TGI: > 100 µM
OVCAR-8 ovarian
  TGI: > 100 µM
